According to ChEMBL document CHEMBL3352051, “Isolation, structure determination and cytotoxicity studies of tryptophan alkaloids from an Australian marine sponge Hyrtios sp” (Bioorg Med Chem Lett, 2014):

What was measured:
LNCaP [1] = test: Cytotoxicity against human LNCAP cells after 72 hrs by Alamar Blue assay; type: functional, cell-based
NFF = test: Cytotoxicity against human NFF cells after 72 hrs by Alamar Blue assay; type: cell-based
LNCaP [2] = test: Selectivity index, ratio of IC50 for human NFF cells to IC50 for human LNCaP cells; type: functional
MCF7 = test: Antiproliferative activity against human MCF7 cells; type: functional, cell-based
Malme-3M = test: Antiproliferative activity against human MALME-3M cells; type: functional, cell-based
[3] = Antiproliferative activity against human OVCAR3 cells; type: functional, cell-based; details: OVCAR-3

Structure (SMILES)	IC50 (LNCaP [1]) [µM]	IC50 (NFF) [µM]	Ratio IC50 (LNCaP [2])	EC50 (MCF7) [µg/mL]	EC50 (Malme-3M) [µg/mL]	EC50 [3] [µg/mL]
O=C1c2ccccc2-[n+]2ccc3c([nH]c4ccccc43)c21 [FASCAPLYSIN]	0.54	0.339	0.63	0.14	0.03	0.16
O=C(O)c1ccccc1-[n+]1ccc2c(c1)[nH]c1ccccc12.[Cl-] [RETICULATATE]	25.9	19.8	0.77			
O=C1c2ccccc2-n2c1c1[nH]c3ccccc3c1cc2=O	22.9	32.1	1.4			
COc1cccc2c1C(=O)c1c(O)c3c(c(O)c1C2=O)C[C@@](O)(C(=O)CO)C[C@@H]3O[C@H]1C[C@H](N)[C@H](O)[C@H](C)O1 [DOXORUBICIN]	0.0135	0.126	8.97			
O=C(O)c1ccccc1-n1ccc2c([nH]c3ccccc32)c1=O	44.9	47.6	1.06			
